The values below are quoted from earlier work in US9512385B2, “Disinfectant solution for nonionic soft contact lenses” (MENICON CO., LTD., priority 2012, dated 2016).

The conditions of the data set: background art statement.

polylysine: the “IC50 value in cytotoxicity test relative to PHMB” value is on record as “about several hundredth part of that of PHMB”.
